Measurements as given in a melting point compilation (Tetko et al.; mined from patent text by program, amines drawn as free bases though some values may be those of a salt).

First: COC(=O)[C@@H]1OCN(NS(=O)(=O)c2ccc([N+](=O)[O-])cc2)[C@H]1c1ccccc1
Second: CC(C)Oc1ccc(C(=O)c2ccc([N+](=O)[O-])cc2)cc1
The melting point of the first is higher: 160 to 162 °C for the first, 136 to 137 °C for the second.

First: CN(CCNc1ncc(Cc2ccc(Cl)cc2)c(=O)[nH]1)c1ccccn1
Second: O=C(O)C(OCc1ccc(-c2ccc(Cl)cc2)cc1)c1ccccc1 (stereo unspecified)
The melting point of the first is higher: 172 to 174 °C for the first, 119 to 121 °C for the second.

First: Nc1cccc(C2CN3CCSC3=N2)c1 (stereo unspecified)
Second: CCOC(=O)c1nsc(-c2ccc(C)cc2)n1
The melting point of the first is higher: 177 to 179 °C for the first, 65 to 66.5 °C for the second.

First: O=C(O)c1c(Cl)ccc([N+](=O)[O-])c1Cl
Second: O=C(CO)c1cc(O)c(O)c([N+](=O)[O-])c1
The melting point of the first is lower: 133 to 135 °C for the first, 208 to 210 °C for the second.

First: CCOC(=O)/C=C/c1cn(Cc2cc(OCc3ccccc3)cc(OCc3ccccc3)c2)cc1-c1ccccc1
Second: CCOC(=O)c1cc(=O)c(-c2ccc(OCc3ccccc3)c(OCc3ccccc3)c2)co1
The melting point of the first is lower: 98 to 99 °C for the first, 122 to 125 °C for the second.

First: CC(C)Sc1cc(O)c(N)c(C#N)c1
Second: Cc1nc2c(N)cc(C(=O)N(C)C)cc2n1C
The melting point of the first is lower: 145 to 146 °C for the first, 230 to 234 °C for the second.

First: COc1ccc(CN2C(=O)CN(Cc3ccc4c(OC)ccnc4c3)S2(=O)=O)c(OC)c1
Second: COc1cc(OC)c2c(=O)[nH]c(-c3ccc(OCCNC(C)C)c(-c4ccc(S(C)(=O)=O)cc4C(F)(F)F)n3)nc2c1
The melting point of the first is lower: 128 to 132 °C for the first, 199 to 201 °C for the second.

First: CC(C)CC(Cn1cc(Sc2ccccc2)c2ccccc21)N(O)C(N)=O (stereo unspecified)
Second: CN(C)C=C(C(=O)c1ccccc1)c1ccccc1
The melting point of the first is lower: 57 °C for the first, 128 to 133 °C for the second.

First: OCc1cnc(Oc2ccccc2)s1
Second: O=C1c2ccccc2CCc2cccnc21
The melting point of the first is lower: 50 °C for the first, 118 to 120 °C for the second.

Compared with `OCCN1CCC(=C2c3sccc3CCn3ccnc32)CC1`, `CCOc1nc(N)nc(N2CCc3ccccc3CC2)c1C#N` is higher in melting point: 155 °C for the first, 195 to 203 °C for the second.

First: Cn1ccc2cc(/C=C/C3=CCN(Cc4ccccc4)CC3)ccc21
Second: C(=C\c1ccc2c(c1)COC(N[C@@H]1CCc3ccccc31)=N2)/c1cccnc1
The melting point of the first is higher: 138 °C for the first, 132 °C for the second.

Compared with `O=S(=O)(c1ccc(Br)cc1)N1CCN(CC2CCN(c3ccncc3)CC2)CC1`, `O=C1CCCN1CC1CCN(c2nc(C(F)(F)F)ncc2O)CC1` is higher in melting point: 179 to 180 °C for the first, 213 to 215 °C for the second.

Compared with `NC(=S)C(F)(F)c1ccccc1`, `O=C(Nc1ccccn1)c1c(C(F)(F)F)nc2c(C(F)(F)F)cccc2c1O` is higher in melting point: 99 to 100 °C for the first, 236 °C for the second.

First: O=C(O)c1cc2ccnc(N(Cc3ccccc3)Cc3ccccc3)c2[nH]1
Second: Cc1c(CCl)ncn1C(c1ccccc1)(c1ccccc1)c1ccccc1
The melting point of the first is lower: 114 to 120 °C for the first, 133 to 135 °C for the second.

First: Nn1c(-c2cncc(Cl)c2)cc2ccccc21
Second: Cc1cc(-c2cccc(Cl)c2)nn2c(C)nnc12
The melting point of the first is lower: 154 to 156 °C for the first, 194 to 196 °C for the second.

First: N#CNC(=N)CCc1ccccc1Sc1ccccc1CCC(=N)NC#N
Second: CCCC1(S(=O)(=O)CCC(=O)OC)c2ccccc2-c2ccccc21
The melting point of the first is higher: 188 to 190 °C for the first, 74 to 77 °C for the second.

First: CC(C(N)=O)c1ccc2c(c1)C(=O)Cc1cc(F)ccc1S2 (stereo unspecified)
Second: NC(=O)CNC(=O)c1cc(-c2cccc3cc(Cc4cc(F)cc(Cl)c4)sc23)ccc1F
The melting point of the first is higher: 224 to 225 °C for the first, 129 to 130 °C for the second.

First: CC(/C=C/c1sccc1-c1cc2c(cc1C)C(C)(C)CCC2(C)C)=C\C(=O)O
Second: CCCOC(C(=O)O)c1ccc2c(c1)C(C)(C)CCC2(C)C (racemic)
The melting point of the first is higher: 208 to 209 °C for the first, 84 to 86 °C for the second.

First: C[C@@H]1CNC[C@H](C)N1c1ncccn1
Second: O=C1CC(NC(=O)c2cccnc2)CCCN1 (stereo unspecified)
The melting point of the first is lower: 130 to 135 °C for the first, 220 to 221 °C for the second.

First: COC(=O)c1nccc2c1[nH]c1ccc(Oc3ccc([N+](=O)[O-])cn3)cc12
Second: Cc1cc(Oc2ccc(N)cc2)c2ncccc2c1
The melting point of the first is lower: 150 to 155 °C for the first, 184 to 185 °C for the second.

First: O=C(c1ccccc1F)c1cc(Cl)ccc1C(=O)C(Br)CN1C(=O)c2ccccc2C1=O (stereo unspecified)
Second: COc1ccc(Cl)cc1C(=O)NCCc1ccc(Sc2ccccc2)c(S(N)(=O)=O)c1
The melting point of the first is lower: 125 to 128 °C for the first, 178 °C for the second.

First: O=c1c2c(Cc3cccc(C(F)(F)F)c3)n[nH]c2c2cccnc2n1-c1cccc(C(F)(F)F)c1
Second: Cc1ccc(-n2c(-c3cc(-c4ccc(Cl)cc4)c(N4CCOCC4)s3)nc3ccccc3c2=O)cc1
The melting point of the first is lower: 206 to 208 °C for the first, 224 to 226 °C for the second.

First: CCCCCCS(=O)(=O)c1nn2c(=O)c(Cl)c(F)nc2s1
Second: Cc1cc2[nH]c3cc(Cl)ncc3c(=O)n2n1
The melting point of the first is lower: 185 to 188 °C for the first, greater than 300 °C for the second.

Going from `Cc1ccc(C(=O)Nc2cccnc2)c(Nc2ccc3cn[nH]c3c2)n1` to `COc1ccc(S(=O)(=O)N(Cc2cccnc2)c2c(C)cc(-c3cccs3)cc2C(=O)O)cc1`, the melting point falls from greater than 280 °C to 191 °C.

Compared with `Nc1ccn([C@H]2C=C[C@@H](O)C2)c(=O)n1` (racemic), `CN(CC(=O)O)C[C@@H]1CC(c2ccc(-c3ccc(N4C[C@H](Cn5ccnn5)OC4=O)cc3F)cn2)=NO1` is lower in melting point: 241 to 242 °C for the first, 212 to 218 °C for the second.

Compared with `COC(C)c1cccc(NC(=O)NCC(=O)N(CC(=O)N(C)c2ccccc2)c2ccccc2)c1` (racemic), `NC(Cc1ccc(OCc2ccccc2)cn1)C(=O)Nc1ccc(CCCC(=O)NO)cc1` (stereo unspecified) is higher in melting point: 194 °C for the first, greater than 300 °C for the second.

First: COC12CC(CCN3CCC(c4c[nH]c5ccccc45)CC3)CN(C)C1Cc1c[nH]c3cccc2c13 (stereo unspecified)
Second: Cc1ccc(-c2ncc(N3CCC(O)CC3)nc2-c2ccc(C)cc2)cc1
The melting point of the first is lower: 153 to 156 °C for the first, 176 to 178 °C for the second.

First: CCCn1nnn(-c2cc(C)c(Cl)cc2Cl)c1=O
Second: CCOC(=O)Cc1cc(C)c(C(=O)c2ccc(Cl)cc2Cl)n1C
The melting point of the first is lower: 47 to 48 °C for the first, 90 to 92 °C for the second.

First: CC1Cc2cccc(S(=O)(=O)NC(C)(C)C)c2S1 (stereo unspecified)
Second: CC(=NO)c1ccc2c(c1)N(C(=O)OC(C)(C)C)CCC2
The melting point of the first is lower: 97 to 98 °C for the first, 134 to 137 °C for the second.

First: Cc1nn2c(O)ccnc2c1-c1cc(-c2ccccc2)cs1
Second: CCOC(=O)c1c(C(C)C)nc(-c2ccccc2)c(C(C)C)c1-c1ccc(F)cc1
The melting point of the first is higher: 218 to 235 °C for the first, 138 to 140 °C for the second.

Compared with `COc1ccc(OC)c(C(=O)Cl)c1`, `CCOC(=O)c1ccc(O[Si](C)(C)C(C)(C)C)c(OC)c1` is higher in melting point: 36 to 38 °C for the first, 103 °C for the second.

Compared with `Cc1ccccc1NC(=O)NCc1cccc2c1C(=O)N(C1CCC(=O)NC1=O)C2=O` (stereo unspecified), `CC(C)CCCC(=O)OC1c2ccccc2C(=O)N1c1ccc2ccc(Cl)nc2n1` (stereo unspecified) is lower in melting point: greater than 260 °C for the first, 132 °C for the second.

First: CCOC(=O)c1ccc(C=Cc2ccc(OC)cc2)cc1
Second: C=CCOc1ccc2c(C)cc(=O)oc2c1C(=O)C=Cc1ccc(Cl)cc1
The melting point of the first is higher: 191 to 192 °C for the first, 153 to 155 °C for the second.

First: CC(C)OC(=O)N(O)CCN1CCCCC1
Second: CC(=O)NCC1CN(c2ccc(N3CCN(C(=O)CCN4CCOCC4)CC3)c(F)c2)C(=O)O1 (stereo unspecified)
The melting point of the first is lower: 78 to 79 °C for the first, 209 to 210 °C for the second.

First: C=CC[C@@H](CO)[C@@H](O)[C@H](O)C(=O)CO
Second: CS(=O)(=O)CCCC1(C(=O)O)CCC1
The melting point of the first is lower: 112 to 113 °C for the first, 113 to 116 °C for the second.

Compared with `Cc1cnc(NS(C)(=O)=O)cc1C(c1cc(F)ccc1F)S(=O)(=O)c1ccc(Cl)cc1` (stereo unspecified), `CNc1nc(Nc2ccc(Cl)c(Cl)c2)ncc1NS(C)(=O)=O` is higher in melting point: 214 to 217 °C for the first, 263 to 266 °C for the second.

Compared with `N#Cc1ccc2cc(CCc3cc4ccc(C#N)cc4o3)oc2c1`, `Fc1ccc(Cn2ccc3cc(Br)ccc32)cc1` is lower in melting point: 266 to 267 °C for the first, 57 to 58 °C for the second.

First: COC(=O)c1ccc(N2CCCC2=O)c([N+](=O)[O-])c1
Second: CCOC(=O)C(C)Oc1cc(F)ccc1[N+](=O)[O-] (stereo unspecified)
The melting point of the first is higher: 159 to 161 °C for the first, 64 to 65 °C for the second.

First: CCOc1cc(N)c(Cl)cc1C(=O)[NH+]([O-])CC1CN(Cc2ccccc2Cl)CCO1 (stereo unspecified)
Second: COc1cc(N(C)C)c(Cl)cc1C(=O)NC1CCN(Cc2ccc(F)cc2)C1 (stereo unspecified)
The melting point of the first is higher: 154 to 157 °C for the first, 139 to 141 °C for the second.

Compared with `COc1nc(C)nc(NC(=O)NS(=O)(=O)c2ccccc2C(=O)OC(C)C)n1`, `CCOC(=O)C(CC)=C(C)NC(=O)Nc1cc(OC(C)C)c(Cl)cc1F` is lower in melting point: 193 to 196 °C for the first, 112 to 114 °C for the second.

First: COC(C(=O)O)c1c(Cl)cccc1Cl (stereo unspecified)
Second: CC(=NOCC(=O)O)c1ccc(Cl)cc1
The melting point of the first is lower: 95 to 96 °C for the first, 116 °C for the second.

First: CCCN(C(=O)CCl)[C@@H]1CCc2cc3c(cc2[C@H]1O)OCC3 (relative stereo)
Second: O=C(O)CCCNc1ccc2c(NC(=O)CC3CCCCC3)c(Cl)ccc2n1
The melting point of the first is lower: 65 to 70 °C for the first, 248 to 250 °C for the second.

Compared with `CCCc1c(SC(=O)N(C)C)ccc2c(=O)cc(C(=O)OCC)oc12`, `CCc1ccc(Cc2c(O)nn(C(C)C)c2C)cc1` is higher in melting point: 113 to 114 °C for the first, 164 to 169 °C for the second.

First: CCNC(=O)n1nc(Oc2c(Cl)cc(C(F)(F)F)cc2Cl)cc1COC
Second: O=C(O)c1c[nH]c2nc(Cl)ccc2c1=O
The melting point of the first is lower: 106 to 108 °C for the first, 271 to 273 °C for the second.

First: c1c[nH]c(C(c2ccc[nH]2)C23CC4CC(CC(C4)C2)C3)c1
Second: Cc1ccc(C2Sc3ccccc3NC(=O)C2COS(C)(=O)=O)cc1 (stereo unspecified)
The melting point of the first is lower: 168 to 169 °C for the first, 207 °C for the second.

First: O=C1CC2CSc3sc(Br)cc3C2=NN1c1ccc(Cl)cc1 (stereo unspecified)
Second: CCC(C#N)c1ccc(Cl)c2nc3n(c12)CCCN3c1ccc(Cl)cc1Cl (stereo unspecified)
The melting point of the first is lower: 169 to 170 °C for the first, 220 to 221 °C for the second.

First: C=C[C@H]1CN(c2c(F)cc3c(=O)c(C(=O)O)cn4c3c2OC[C@@H]4C)C[C@H]1N
Second: NC(=O)c1sc2nccc(N3CCCN(c4ccc(Cl)nn4)CC3)c2c1N
The melting point of the first is higher: 238 to 240 °C for the first, 232 to 234 °C for the second.

First: COc1ccc(CN(C(=O)C2CCCc3c(O)cccc32)c2ccc(C(C)C)cc2)cn1 (stereo unspecified)
Second: Cc1ccc(C2c3c(C)c(N4CCN(c5ccccn5)CC4)c(C)c(C)c3OC2(C)C)cc1 (stereo unspecified)
The melting point of the first is lower: 158 °C for the first, 190 to 191 °C for the second.

First: CC(O)COC1CCNCC1 (stereo unspecified)
Second: CC(C)(C)OC(=O)N1CCC(c2ccc3[nH]c(=O)[nH]c3c2)CC1
The melting point of the first is lower: 55 to 57 °C for the first, greater than 250 °C for the second.

Compared with `CCC(CC)(CC(=O)Nc1cccc(/C=C/c2nc(C3CC3)cs2)c1)C(=O)O`, `COc1cc(C=C(C=O)C(C=O)=Cc2ccc(OC(C)C)c(OC)c2)ccc1OC(C)C` is lower in melting point: 153 to 157 °C for the first, 119 to 120 °C for the second.

Work on `O=C1CCC(c2ccccc2)(c2ccccc2)[C@@H]2CN(C(=O)Cc3ccccc3Br)C[C@H]12` (racemic) yielded a melting point of 217 °C.
